{"source": "patent US20250290076A1", "about": "“EPICARDIAL CELL REGENERATION PROMOTER AND METHOD FOR PROMOTING EPICARDIAL CELL REGENERATION” (KYOTO UNIVERSITY, priority 2022, published 2025)", "type_in_all_cases": "cell-based", "key": {"CDKN1A": {"system": "CDKN1A", "assay": "siRNA transfection assay, relative CDKN1A mRNA expression by quantitative RT-PCR", "details": "human iPS cell-derived fetal epicardium; vs negative control siRNA; normalized with GAPDH", "protocol": "(§1) In the siRNA transfection assay, the human iPS cell-derived fetal epicardium was seeded at a density of 0.8×10^6 cells per 10 cm dish, and transfection was carried out using RNAiMax (Invitrogen). Twenty-four hours after the transfection, the culture medium was replaced with a fresh medium. A small interfering RNA (siRNA) (sense strand: CAAGGAGUCAGACAUUUUAtt (SEQ ID NO: 1), an anti-sense strand: UAAAAUGUCUGACUCCUUGtt (SEQ ID NO: 2)) targeting CDKN1A, and a negative control siRNA No.1 (4390843) derived from Ambion Silencer Select, were used in accordance with the manufacturer's instructions.\nRNAs were extracted using QIAzol lysis reagent (manufactured by QIAGEN N.V.), and cDNA was synthesized from the total RNA using ReverTra Ace qPCR RT Master Mix with gDNA Remover (manufactured by TOYOBO Co., Ltd.). Subsequently, quantitative RT-PCR was performed using Thunderbird SYBR qPCR Mix (manufactured by TOYOBO Co., Ltd.)), in One Step Real-Time PCR System (Applied Biosystems). The gene expression results were quantified by the AACt method, and normalized with GAPDH.\nThe primers used are as follows. […]\nThe human iPS cell-derived fetal epicardium was subjected to siRNA transfection assay, using a siRNA (siCDKN1A) targeting CDKN1A or a negative control siRNA (control), and the relative mRNA expression levels of CDKN1A were measured by quantitative RT-PCR."}, "[1]": {"system": "human iPS cell-derived fetal epicardium", "assay": "Cell proliferation curve assay", "details": "cell proliferation curves for 7 days after siRNA transfection; vs negative control siRNA", "protocol": "as §1\nThe cell proliferation was evaluated by the time-course curve of the proliferation of the cells on a six-well plate. The cells were seeded at a density of 4 ×10^4 cells per well, and the total number of cells was counted using trypan blue for 8 days at intervals of 24 hours. The cell proliferation curves were generated by plotting the number of cells against time. After seeding, the cells were fixed with 4% paraformaldehyde (PFA), and stained with crystal violet on the days the cells were counted. The values were represented as the cell proliferation rate of the cells proliferated in the presence of 10% FBS. “0%” refers to the number of cells on day 0. […]"}, "human epicardial cells": {"system": "human epicardial cells", "assay": "Colony formation assay", "details": "colony formation for 14 days after siRNA transfection; vs negative control siRNA", "protocol": "as §1\n[…] Thereafter, the colony was fixed with 4% PFA, stained with crystal violet, and counted by Image-J.\nThe colony formation assay was carried out in the same manner, in order to measure the viability of the human epicardial cells."}, "[2]": {"system": "human iPS cell-derived fetal epicardium", "assay": "Wound-healing assay", "details": "from 20 hours to 24 hours after scratching; vs negative control siRNA", "protocol": "as §1\nThe cells were seeded on a six-well plate and cultured until 100% confluent. Subsequently, the cell monolayer was scratched with a pipette tip, to create a physical wound manually. The scratched area was imaged 0, 12, 16, 20 and 24 hours after scratching. The area without cells at the beginning, and the remaining area after 12, 16, 20 and 24 hours, were quantified by Image-J. Thereafter, the percentage of the scratched area into which migrating cells reassembled (the percentage of the wound-closed area) was calculated, with respect to the scratched area.\nFurther, the wound-healing assay was performed for the human iPS cell-derived fetal epicardium which had been subjected to the transfection assay using each siRNA. […]"}, "[3]": {"system": "human iPS cell-derived fetal epicardium", "assay": "Transcriptome analysis for gene signature of cell quiescence by RNA sequencing", "details": "compared to human iPS cell-derived fetal epicardium and adult epicardium", "protocol": "as §1\nThe data obtained by RNA sequencing were normalized using NOISeq. The data of the adult epicardium are published for the analysis, under the GSE accession number: GSE8484085. The primary data of the RNA sequencing were processed using RStudio, for mapping and gene expression analysis. The gene expression data for searching, loading and pre-processing were processed using the Bioconductor package, NOISeq, for performing the data analysis and the differential expression analysis of the RNA sequencing data. Heatmaps for clustering differentially expressed genes (DEG) were generated, using R script.\nIn addition, the transcriptome analysis for detecting the gene signature of cell quiescence was carried out by RNA sequencing (FIG. 6). […]"}}, "data": [{"substance": "siCDKN1A: siRNA targeting CDKN1A; sense strand CAAGGAGUCAGACAUUUUAtt (SEQ ID NO: 1), anti-sense strand UAAAAUGUCUGACUCCUUGtt (SEQ ID NO: 2) (sense CAAGGAGUCAGACAUUUUATT; antisense UAAAAUGUCUGACUCCUUGTT; chemistry not given here)", "values": [{"measurement": "expression level of CDKN1A at the mRNA level as compared to that in the control", "setting": "CDKN1A", "value": "≤ 50", "unit": "%"}, {"measurement": "proliferative capacity of the human epicardial cells", "setting": "[1]", "value": "significant increase"}, {"measurement": "viability of the human epicardial cells (colony formation)", "setting": "human epicardial cells", "value": "significant increase"}, {"measurement": "wound healing capacity (percentage of the wound-closed area)", "setting": "[2]", "value": "significant increase"}, {"measurement": "cell quiescence gene signature", "setting": "[3]", "value": "more released from quiescence"}]}]}
